Reference: paper PMC5314961 (Bioorganic & medicinal chemistry letters, 2017)
Entries after “also recorded” stand apart in the source; their conditions may differ.

Columns and labels:
[1] = system: HBV; conditions: literature report; cited from earlier work
[2] = system: HBV; assay: Anti-HBV activity in HepAD38 cells, HBV DNA replication by real-time PCR; format: cell-based, Hepatitis B virus; conditions: for anti-HBV activity (result in words): HepAD38 system, concentrations up to 10 µM

SMILES | inhibitor of HBV replication (reported in the literature) [1] | anti-HBV activity (result in words) [2] | EC50 ([2]; Hepatitis B virus, HePAD38, read-out: Anti-HBV activity, EC50, HepAD38 cells, inhibition of HBV DNA replication by 50%, tested 0.001 to 10 µM, duplicate)
CC1(C)CC(=O)C2=C(C1)NC(c1cccnc1)=NC2c1ccc(F)cc1Cl (stereo not drawn) [Compound 1, reference compound] | submicromolar inhibitor | did not express any activity | 
COC(=O)C1=C(CN=[N+]=[N-])NC(c2ccccn2)=NC1c1ccc(F)cc1Cl (stereo not drawn) [Compound 21d] |  |  | 7.5 µM
CC1=C(Cl)C(c2ccc(F)cc2Cl)N=C(c2ccccn2)N1 (stereo not drawn) [Compound 26c] |  | none of them showed activity; also recorded: inactive | 
CC1=C(C(=O)OCC(F)(F)F)C(c2ccc(F)cc2Cl)N=C(c2ccccn2)N1 (stereo not drawn) [Compound 26e] |  | none of them showed activity | 
CC1=C(C(=O)NS(=O)(=O)N(C)C)C(c2ccc(F)cc2Cl)N=C(c2ccccn2)N1 (stereo not drawn) [Compound 26f] |  | none of them showed activity | 
